Assay results taken from patent publication US10334851B2, “Herbicidal isoxazolo[5,4-B]pyridines” (BASF SE, priority 2010, dated 2019).

What was measured:
Type in all cases: in vivo
Setaria faberi = experiment: Greenhouse post-emergence treatment of Setaria faberi (giant foxtail); details: application rate 3.0 kg/ha, scale 0 to 100, read-out: damage
Source text: (§1) The seeds of the test plants were sown separately for each species. For the post-emergence treatment, the test plants were first grown to a height of 3 to 15 cm, depending on the plant habit, and only then treated with the active ingredients which had been suspended or emulsified in water. For this purpose, the test plants were either sown directly and grown in the same containers, or they were first grown separately as seedlings and transplanted into the test containers a few days prior to treatment. Depending on the species, the plants were kept at 10-25° C. or 20-35° C. The test period extended over 2 to 4 weeks. During this time, the plants were tended, and their response to the individual treatments was evaluated. Evaluation was carried out using a scale from 0 to 100. 100 means no emergence of the plants, or complete destruction of at least the aerial moieties, and 0 means no damage, or normal course of growth. A good herbicidal activity is given at values of at least 80 and a very good herbicidal activity is given at values of at least 90. The plants used in the greenhouse experiments belonged to the following species: [table]

Abutilon theophrasti = experiment: Greenhouse post-emergence treatment of Abutilon theophrasti (velvetleaf); details: scale 0 (no damage) to 100 (complete destruction); for pest or weed control at 3000 g/ha: Abutilon theophrasti
Source text: as §1

[1] = test system: Amaranthus retroflexus L.; experiment: Greenhouse post-emergence treatment of Amaranthus retroflexus L. (pigweed); details: application rate 1.0 kg/ha; for damage: scale 0 to 100; for pest or weed control at 1000 g/ha: scale 0 to 100, read-out: damage
Source text: as §1

Chenopodium album = experiment: Greenhouse post-emergence treatment of Chenopodium album (fat-hen); details: application rate 1.0 kg/ha; for damage: scale 0 to 100; for pest or weed control at 1000 g/ha: scale 0 to 100, read-out: damage
Source text: as §1

Compound	damage [1] [%]	damage (Chenopodium album) [%]	damage (Abutilon theophrasti; application rate 3.0 kg/ha) [%]	other results
O=C(O)c1cc(C2(F)CC2)nc2onc(C3(F)CC3)c12	–	–	–	pest or weed control at 3000 g/ha (Setaria faberi): 98%
C=CCOC(=O)c1cc(C2CC2)nc2onc(C)c12 [I.1.62]	–	–	–	damage (Abutilon theophrasti; application rate 2.0 kg/ha): 100%
Cc1noc2nc(C3CC3)cc(C(=O)OCC(F)F)c12 [I.1.65]	100	100	–	–
CC#CCOC(=O)c1cc(C2CC2)nc2onc(C)c12 [I.1.68]	–	–	100	–
CCOCCOC(=O)c1cc(C2CC2)nc2onc(C)c12 [I.1.69]	–	–	100	–
CCCCOCCOCCOC(=O)c1cc(C2CC2)nc2onc(C)c12 [I.1.70]	–	–	100	–
C=COCCOC(=O)c1cc(C2CC2)nc2onc(C)c12 [I.1.75]	–	–	100	–
Cc1noc2nc(C3CC3)cc(C(=O)SCc3ccccc3)c12 [I.1.79]	98	85	–	–
C=CCSC(=O)c1cc(C2CC2)nc2onc(C)c12 [I.1.80]	98	98	–	–
CCCCSC(=O)c1cc(C2CC2)nc2onc(C)c12 [I.1.81]	98	98	–	–
CSC(=O)c1cc(C2CC2)nc2onc(C)c12 [I.1.82]	98	98	–	–
CON(C)C(=O)c1cc(C2CC2)nc2onc(C)c12 [I.1.83]	100	100	–	–
O=C(O)c1cc(C2CC2)nc2onc(-c3ccc(Cl)cc3)c12 [I.2.17]	–	–	100	–
O=C(O)c1cc(C2CC2)nc2onc(-c3ccc(C(F)(F)F)cc3)c12 [I.2.18]	–	–	100	–
O=C(O)c1cc(C2CC2)nc2onc(-c3cccc(C(F)(F)F)c3)c12 [I.2.21]	–	–	100	–
COc1cccc(-c2noc3nc(C4CC4)cc(C(=O)O)c23)c1 [I.2.22]	–	–	100	–
O=C(O)c1cc(C2CC2)nc2onc(-c3cccc(Cl)c3)c12 [I.2.24]	–	–	100	–
CCc1noc2nc(C3CC3)cc(C(=O)O)c12 [I.2.25]	–	–	–	pest or weed control at 3000 g/ha (Setaria faberi): 95%
O=C(O)c1cc(C2CC2)nc2onc(C3CCCCC3)c12 [I.2.26]	–	–	–	pest or weed control at 3000 g/ha (Abutilon theophrasti; application rate 3.0 kg/ha): 100%
O=C(O)c1cc(C2CC2)nc2onc(CC3CCCC3)c12 [I.2.27]	–	–	–	pest or weed control at 3000 g/ha (Abutilon theophrasti; application rate 3.0 kg/ha): 100%

Compound	damage [1] [%]	damage (Chenopodium album) [%]	damage (Abutilon theophrasti; application rate 3.0 kg/ha) [%]	other results
O=C(O)c1cc(C2CC2)nc2onc(CCC3CCCCC3)c12 [I.2.30]	–	–	–	pest or weed control at 3000 g/ha (Abutilon theophrasti; application rate 3.0 kg/ha): 100%
O=C(O)c1cc(C2CC2)nc2onc(-c3cccc(F)c3)c12 [I.2.31]	–	–	100	–
O=C(O)c1cc(C2CC2)nc2onc(CCCc3ccccc3)c12 [I.2.37]	–	–	90	–
COCc1noc2nc(C3CC3)cc(C(=O)O)c12 [I.2.38]	–	–	100	–
CC(C)CCc1noc2nc(C3CC3)cc(C(=O)O)c12 [I.2.39]	–	–	100	–
O=C(O)c1cc(C2CC2)nc2onc(CCCc3cccs3)c12 [I.2.40]	–	–	–	pest or weed control at 3000 g/ha (Abutilon theophrasti; application rate 3.0 kg/ha): 100%
COc1ccc(CCc2noc3nc(C4CC4)cc(C(=O)O)c23)cc1 [I.2.42]	–	–	100	–
O=C(O)c1cc(C2CC2)nc2onc(-c3ccc(I)cc3)c12 [I.2.43]	–	–	100	–
O=C(O)c1cc(C2CC2)nc2onc(-c3cc(F)cc(F)c3)c12 [I.2.44]	–	–	100	–
O=C(O)c1cc(C2CC2)nc2onc(-c3ccc(OC(F)F)cc3)c12 [I.2.45]	98	98	–	–
O=C(O)c1cc(C2CC2)nc2onc(C3(F)CC3)c12 [I.2.46]	–	–	–	pest or weed control at 1000 g/ha [1]: 98%; pest or weed control at 1000 g/ha (Chenopodium album): 98%
O=C(O)c1cc(C2CC2)nc2onc(-c3ccccc3F)c12 [I.2.50]	100	100	–	–
O=C(O)c1cc(C2CC2)nc2onc(-c3ccc(F)cc3)c12 [I.2.51]	100	100	–	–
Cc1ccccc1-c1noc2nc(C3CC3)cc(C(=O)O)c12 [I.2.52]	100	98	–	–
COc1noc2nc(C3CC3)cc(C(=O)O)c12 [I.2.53]	–	–	–	pest or weed control at 1000 g/ha [1]: 100%; pest or weed control at 1000 g/ha (Chenopodium album): 100%
CCOc1noc2nc(C3CC3)cc(C(=O)O)c12 [I.2.54]	–	–	–	pest or weed control at 1000 g/ha [1]: 100%; pest or weed control at 1000 g/ha (Chenopodium album): 100%
CCCOc1noc2nc(C3CC3)cc(C(=O)O)c12 [I.2.55]	100	100	–	–
CCCCOc1noc2nc(C3CC3)cc(C(=O)O)c12 [I.2.56]	100	100	–	–
CC(C)Oc1noc2nc(C3CC3)cc(C(=O)O)c12 [I.2.57]	–	–	–	pest or weed control at 1000 g/ha [1]: 100%; pest or weed control at 1000 g/ha (Chenopodium album): 100%
